Drawing on US10344019B2 (priority 2010, dated 2019), this text covers EC50 for 14 molecules.

The structures appear in SMILES notation.

Holding throughout (type): cell-based
The test system of test [1] is Q30R in genotype 1a NS5A, 1a Rluc replicon transfected into Huh-7 cured-51 cells. Nature of the test: HCV replicon assay, resistance mutant 1a Q30R. Particulars: Hepatitis C virus, Huh-7, read-out: 1a Q30R. How it is done: Evaluation of cell-based anti-HCV activity: Antiviral potency (EC50) was determined using a Renilla luciferase (RLuc)-based HCV replicon reporter assay. To perform the assay for genotype 1 and 2a JFH-1, HCV 1b RLuc cells (harboring a dicistronic genotype 1b Con1 replicon that encodes a RLuc reporter), or HCV 1a RLuc cells (harboring a dicistronic genotype 1a H77 replicon that encodes a RLuc reporter), or HCV 2a JFH-1 Rluc cells (harboring a dicistronic genotype 2a JFH-1 replicon that encodes a RLuc reporter) were dispensed into 384-well plates. To perform the assay for genotype 2a (with M31 present) or 2b, HCV 2a Rluc or 2b Rluc cells (both with M31 present) harboring a dicistronic NS5A chimeric genotype 2a JFH-1 replicon that encodes a RLuc reporter and either genotype 2a J6 strain NS5A gene or genotype 2b MD2b-1 NS5A gene (based on Los Alamos HCV database isolates, both with M31 present) respectively, were dispensed into 384-well plates. To perform the assay for genotype 3 and 4, HCV 3a RLuc or 4a Rluc cells harboring a dicistronic NS5A chimeric genotype 1b Con1 replicon that encodes a RLuc reporter and either a consensus genotype 3a NS5A gene or genotype 4a NS5A gene (based on Los Alamos HCV database isolates) respectively, were dispensed into 384-well plates. Compounds were re-suspended in DMSO at a concentration of 10 mM and serially diluted in DMSO either manually or using an automated pipeting instrument. Serially diluted compounds were mixed with cell culture media and added to the seeded cells. […] 72 hours later, cells were lysed and Renilla luciferase activity quantified as recommended by the manufacturer (Promega-Madison, Wis.). Non-linear regression was performed to calculate EC50 values.
To determine the antiviral potency (EC50) against resistance mutants, resistance mutations, including M28T, Q30R, Q30H, L31M, and Y93C in genotype 1a NS5A and Y93H in genotype 1b NS5A, were introduced individually into either 1a Rluc or 1b Rluc replicons described above by site directed mutagenesis. Replicon RNA of each resistant mutant was transfected into Huh-7 cured-51 cells and antiviral potency was determined on these transfected cells as described above.
For orientation: A replicon is a self-replicating genome or part of one, used to study replication in cells.

The test system of test [2] is HCV 3a RLuc cells (NS5A chimeric genotype 1b Con1 replicon with consensus genotype 3a NS5A gene). As to the kind of experiment: microbe, parasite or virus in culture. Particulars: Hepatitis C virus, read-out: 3a, genotype 3a NS5A chimeric replicon. In a few lines: (§1)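 Replicon cells stably carrying the listed RLuc-encoding dicistronic replicons were seeded and treated with DMSO serial dilutions of compound (10 mM stocks) diluted into culture medium. After 72 h, cells were lysed and Renilla luciferase activity measured. EC50 was derived by non-linear regression.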

In test [3] the test system is HCV 2b Rluc cells (NS5A chimeric genotype 2a JFH-1 replicon with genotype 2b MD2b-1 NS5A gene, M31 present). Nature of the test: microbe, parasite or virus in culture. Particulars: Hepatitis C virus, read-out: 2b. In a few lines: as §1
The test system of test [4] is HCV 1b RLuc cells (dicistronic genotype 1b Con1 replicon, RLuc reporter). Nature of the test: microbe, parasite or virus in culture. Particulars: Hepatitis C virus, read-out: 1b (nM). In short, it runs like this: (§2)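 Renilla luciferase HCV replicon cells: dicistronic 1b Con1, 1a H77 or 2a JFH-1 replicons, or a JFH-1 chimera carrying J6 NS5A (M31 present). Compound in DMSO serial dilutions, 72 h incubation, then lysis and luciferase read. EC50 by non-linear regression.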

Test [5] relates to HCV 2a JFH-1 Rluc cells (dicistronic genotype 2a JFH-1 replicon, RLuc reporter). Nature of the test: microbe, parasite or virus in culture. Particulars: Hepatitis C virus, genotype 2a JFH-1 RLuc replicon; read-out: 2a JFH. In short, it runs like this: as §2
The subject of test [6] is HCV 1a RLuc cells (dicistronic genotype 1a H77 replicon, RLuc reporter). As to the kind of experiment: microbe, parasite or virus in culture. Particulars: Hepatitis C virus, genotype 1a H77 RLuc replicon; read-out: 1a. In a few lines: as §2
Test [7] relates to HCV 2a Rluc cells (NS5A chimeric genotype 2a JFH-1 replicon with genotype 2a J6 strain NS5A gene, M31 present). As to the kind of experiment: HCV replicon reporter assay, genotype 2a J6 (M31 present). The settings on record: Hepatitis C virus, read-out: 2a J6. In short, it runs like this: as §2

For the molecule `COC(=O)N[C@H](C(=O)N1[C@@H](C)CC[C@H]1c1ncc(-c2ccc3c(c2)COc2cc4c(ccc5nc([C@@H]6CCCN6C(=O)[C@H](NC(=O)OC)c6ccccc6)[nH]c54)cc2-3)[nH]1)C(C)C` [Example 605], the EC50 was 0.001 to 0.999 nM in test [1]; 0.001 to 0.99 nM in test [2]; 0.001 to 0.999 nM in test [3]; 0.015 nM in test [4]; 0.001 to 0.999 nM in test [5]; 0.001 to 0.999 nM in test [6]. Moreover, the EC50 in test [7] is 0.001 to 0.999 nM.
Take `COC[C@H]1C[C@@H](c2nc3ccc4cc5c(cc4c3[nH]2)OCc2cc(-c3cnc([C@@H]4CC[C@H](C)N4C(=O)[C@@H](NC(=O)OC)C(C)C)[nH]3)ccc2-5)N(C(=O)[C@@H](NC(=O)OC)[C@@H](C)OC)C1` [Example 615]: the EC50 in test [1] is 0.001 to 0.999 nM; in test [2], 0.001 to 0.99 nM; in test [3], 0.001 to 0.999 nM; in test [4], 0.019 nM; in test [5], 0.001 to 0.999 nM; in test [6], 0.001 to 0.999 nM. Besides, the EC50 in test [7] lay in the range of 0.001 to 0.999 nM.
For `CC[C@H](C)[C@H](NC(=O)OC)C(=O)N1C[C@@H](COC)C[C@H]1c1nc2ccc3cc4c(cc3c2[nH]1)OCc1cc(-c2cnc([C@@H]3CC[C@H](C)N3C(=O)[C@@H](NC(=O)OC)[C@@H](C)CC)[nH]2)ccc1-4` [Example 597], the EC50 in test [1] was 0.001 to 0.999 nM; in test [2], 0.001 to 0.99 nM; in test [3], 0.001 to 0.999 nM; in test [4], 0.005 nM; in test [5] it was 0.001 to 0.999 nM; in test [6], 0.001 to 0.999 nM. For the same molecule, the EC50 in test [7] fell in the range of 0.001 to 0.999 nM.
Consider `COC(=O)N[C@H](C(=O)N1[C@@H](C)CC[C@H]1c1ncc(-c2cc3c4c(c2)OCc2cc(-c5cnc([C@@H]6C[C@H](C)CN6C(=O)[C@H](NC(=O)OC)c6ccccc6)[nH]5)cc(c2-4)OC3)[nH]1)C(C)C` [Example 586], for which the EC50 was 0.001 to 0.999 nM in test [1]; 0.001 to 0.99 nM in test [2]; 0.001 to 0.999 nM in test [3]; 0.011 nM in test [4]; 0.001 to 0.999 nM in test [5]; 0.001 to 0.999 nM in test [6]. For the same molecule, the EC50 in test [7] lay in the range of 0.001 to 0.999 nM.
`COC(=O)N[C@H](C(=O)N1[C@@H](C)CC[C@H]1c1ncc(-c2cc3c4c(c2)OCc2cc(-c5cnc([C@@H]6CC[C@H](C)N6C(=O)[C@@H](NC(=O)OC)[C@@H](C)OC)[nH]5)cc(c2-4)OC3)[nH]1)[C@@H](C)OC` [Example 616]: the EC50 in test [1] was 0.001 to 0.999 nM; in test [2], 0.001 to 0.99 nM; in test [3], 0.001 to 0.999 nM; in test [4] it was 0.018 nM; in test [5] it was 0.001 to 0.999 nM; in test [6] it was 0.001 to 0.999 nM. Further, the EC50 in test [7] fell in the range of 0.001 to 0.999 nM.
On to `CC[C@H](C)[C@H](NC(=O)OC)C(=O)N1C[C@@H](C)C[C@H]1c1ncc(-c2ccc3c(c2)COc2cc4c(ccc5nc([C@@H]6C[C@H](COC)CN6C(=O)[C@H](NC(=O)OC)c6ccccc6)[nH]c54)cc2-3)[nH]1` [Example 639], for which the EC50 in test [1] was 0.001 to 0.999 nM; in test [2], 0.001 to 0.99 nM; in test [3], 0.001 to 0.999 nM; in test [4] it was 0.011 nM; in test [5] it was 0.001 to 0.999 nM; in test [6], 0.001 to 0.999 nM. The EC50 in test [7] lay in the range of 0.001 to 0.999 nM.
`COC(=O)N[C@H](C(=O)N1[C@@H](C)CC[C@H]1c1nc2ccc3cc4c(cc3c2[nH]1)OCc1cc(-c2cnc([C@@H]3C[C@H](C)CN3C(=O)[C@H](NC(=O)OC)c3ccccc3)[nH]2)ccc1-4)C(C)C` [Example 609]: the EC50 is 0.001 to 0.999 nM in test [1]; 0.001 to 0.99 nM in test [2]; 0.001 to 0.999 nM in test [3]; 0.005 nM in test [4]; 0.001 to 0.999 nM in test [5]; 0.001 to 0.999 nM in test [6]. For the same molecule, in test [7], the EC50 lay within 0.001 to 0.999 nM.
With `COC[C@H]1C[C@@H](c2ncc(-c3ccc4c(c3)COc3cc5c(ccc6nc([C@@H]7C[C@H]8C[C@H]8N7C(=O)[C@@H](NC(=O)OC)C(C)C)[nH]c65)cc3-4)[nH]2)N(C(=O)[C@H](NC(=O)OC)c2ccccc2)C1` [Example 633], the EC50 in test [1] was 0.001 to 0.999 nM; in test [2], 0.001 to 0.99 nM; in test [3], 0.001 to 0.999 nM; in test [4], 0.02 nM; in test [5] it was 0.001 to 0.999 nM; in test [6], 0.001 to 0.999 nM. In addition, the EC50 in test [7] lay in the range of 0.001 to 0.999 nM.
As for `COC[C@H]1C[C@@H](c2nc3ccc4cc5c(cc4c3[nH]2)OCc2cc(-c3cnc([C@@H]4CC[C@H](C)N4C(=O)[C@@H](NC(=O)OC)C(C)C)[nH]3)ccc2-5)N(C(=O)[C@H](NC(=O)OC)c2ccccc2)C1` [Example 594], the EC50 in test [1] is 0.001 to 0.999 nM; in test [2], 0.001 to 0.99 nM; in test [3], 0.001 to 0.999 nM; in test [4], 0.013 nM; in test [5], 0.001 to 0.999 nM; in test [6], 0.001 to 0.999 nM. For the same molecule, the EC50 in test [7] is 0.001 to 0.999 nM.
As for `COC[C@H]1C[C@@H](c2nc3c([nH]2)-c2cc4c(cc2CC3)-c2ccc(-c3cnc([C@@H]5CC[C@H](C)N5C(=O)[C@@H](NC(=O)OC)C(C)C)[nH]3)cc2CO4)N(C(=O)[C@H](NC(=O)OC)c2ccccc2)C1` [Example 614], the EC50 in test [1] lay within 0.001 to 0.999 nM; in test [2], 0.001 to 0.99 nM; in test [3] it was 0.001 to 0.999 nM; in test [5], 0.001 to 0.999 nM; in test [6], 0.001 to 0.999 nM; in test [7], 0.001 to 0.999 nM.
On to `COC[C@H]1C[C@@H](c2ncc(-c3ccc4c(c3)COc3cc5c(ccc6nc([C@@H]7CCCN7C(=O)[C@H](NC(=O)OC)c7ccccc7)[nH]c65)cc3-4)[nH]2)N(C(=O)[C@@H](NC(=O)OC)[C@@H](C)OC)C1` [Example 626], for which the EC50 is 0.001 to 0.999 nM in test [1]; 0.001 to 0.99 nM in test [2]; 0.001 to 0.999 nM in test [3]; 0.03 nM in test [4]; 0.001 to 0.999 nM in test [5]; 0.001 to 0.999 nM in test [6]. Moreover, the EC50 in test [7] is 0.001 to 0.999 nM.
For the molecule `COC[C@H]1C[C@@H](c2ncc(-c3ccc4c(c3)COc3cc5c(cc3-4)CCc3nc([C@@H]4CCCN4C(=O)[C@@H](NC(=O)OC)C(C)C)[nH]c3-5)[nH]2)N(C(=O)[C@H](NC(=O)OC)c2ccccc2)C1` [Example 606], the EC50 in test [1] was 0.001 to 0.999 nM; in test [2] it was 0.001 to 0.99 nM; in test [3] it was 0.001 to 0.999 nM; in test [4], 0.034 nM; in test [5], 0.001 to 0.999 nM; in test [6], 0.001 to 0.999 nM. Further, the EC50 in test [7] was in the range of 0.001 to 0.999 nM.
Regarding `COC(=O)N[C@H](C(=O)N1C[C@@H](C)C[C@H]1c1ncc(-c2ccc3c(c2)COc2cc4c(ccc5nc([C@@H]6CC[C@H](C)N6C(=O)[C@@H](NC(=O)OC)C(C)C)[nH]c54)cc2-3)[nH]1)C(C)C` [Example 613], the EC50 in test [1] is 0.001 to 0.999 nM; in test [2] it was 0.001 to 0.99 nM; in test [3] it was 0.001 to 0.999 nM; in test [5], 0.001 to 0.999 nM; in test [6], 0.001 to 0.999 nM; in test [7] it was 0.001 to 0.999 nM.
As for `CC[C@H](C)[C@H](NC(=O)OC)C(=O)N1[C@@H](C)CC[C@H]1c1ncc(-c2ccc3c(c2)COc2cc4c(ccc5nc([C@@H]6C[C@H](COC)CN6C(=O)[C@H](NC(=O)OC)c6ccccc6)[nH]c54)cc2-3)[nH]1` [Example 637], the EC50 in test [1] lay within 0.001 to 0.999 nM; in test [2], 0.001 to 0.99 nM; in test [3], 0.001 to 0.999 nM; in test [5], 0.001 to 0.999 nM; in test [6], 0.001 to 0.999 nM; in test [7], 0.001 to 0.999 nM.
